Test results as given in patent publication US5422350A, “Nitrogen substituted acridine and cytochrome P450 inhibitors and methods of use” (priority 1992, dated 1995).

What was measured:
[1] = Clinical interaction, theophylline with tacrine; type: in vivo, human; settings: single 158-mg theophylline with repeated 20-mg tacrine
Description: M. E. Campbell, D. M. Grant, T. Inaba, and W. Kalow, "Biotransformation of Caffeine, Paraxanthine, Theophylline, and Theobromine by polycyclic Aromatic Hydrocarbon-Inducible Cytochrome(s) P-450 in Human Liver Microsomes", DRUG METAB. DISPOS. Vol. 15, pp. 237-249 (1987). Therefore, a potential explanation for the theophylline-tacrine clinical interaction is competition for the same P450 1A2 enzymes.

P450 1A2 [2] = settings: cited from earlier work
[3] = tested on: ethoxyresorufin O-deethylase; settings: rat liver microsomes, Back et al. (1983); cited from earlier work
[4] = tested on: hepatocytes from MC induced male rats; test: Irreversible binding of 14C-tacrine and 14C-1-hydroxytacrine in MC induced rat hepatocytes; type: in vitro ADME; settings: for irreversible binding of 1-hydroxytacrine-derived radioactivity, Percent Control Value: 1-hydroxytacrine 10 uM + inhibitor 50 uM; for inhibition of irreversible binding for both tacrine and 1-hydroxytacrine: relative ranking; for irreversible binding of tacrine-derived radioactivity, Percent Control Value: tacrine 10 uM + inhibitor 50 uM
[5] = Single-dose pharmacokinetic and metabolic disposition study of [14C]tacrine HCl in human male volunteers; type: in vivo
Experimental: Plasma and red blood cells (RBC) were collected predose and for 48 hours postdose. Urine and feces were collected predose and for 96 hours postdose. Urine and plasma samples were analyzed directly by liquid scintillation spectrometry while RBC and fecal samples were solubilized prior to counting. […] Metabolic profiling of urine was performed by HPLC radioactivity detection. Metabolites were identified by HPLC/photodiode array/mass spectrometry.

[6] = Clinical drug interaction study, tacrine with cimetidine; type: in vivo, human; settings: 40 mg tacrine with 300-mg four times a day cimetidine vs tacrine alone
Description: A. Somogyi and M. Muirhead, "Pharmacokinetic Interactions of Cimetidine", CLIN. PHARMACOKIN., Vol. 12, pp. 321-366 (1987).

P450 1A2 [7] = test: in vitro
Experimental: PHARMACOL., Vol. 42, pp. 767-772 (1990) was conducted. […] The effect of various enoxacin concentrations (8, 20, and 50 μM) on the extent of irreversible binding was examined in a separate study.

[8] = In vitro metabolism of 14C-tacrine in rat liver microsomes; settings: microsomes from pretreated rats vs control
Experimental: (§1) Total reaction volume was 3 mL. Reactions were stopped by freezing in liquid nitrogen or dry-ice acetone. […] D. J. Waxman and L. Axaroff, "Phenobarbital induction of cytochrome P-450 Gene Expression", BIOCHEM J, Vol. 281, pp. 577-592 (1992); P. Soucek and I. Gut, supra.

[9] = Irreversible protein binding of 14C-tacrine-derived radioactivity, rat liver microsomes; settings: rat
Experimental: as §1
(§2) C. N. Martin and R. C. Garner: "Covalent Binding In Vitro and In Vivo" in BIOCHEMICAL TOXICOLOGY: A PRACTICAL APPROACH, Eds. K. Snell and B. Mullock, IRL, Wash. D.C. pp. 109-126 (1987).

[10] = Irreversible protein binding of 14C-tacrine-derived radioactivity, human liver microsomes; settings: time course through 1 hour
Experimental: as §1, §2

Cn1c(=O)c2[nH]cnc2n(C)c1=O [Theophylline]
increase in theophylline elimination half-life [1]: two-fold
major route of clearance (P450 1A2 [2]): metabolism by P450 1A2

CCN(CC)CCCC(C)Nc1ccnc2cc(Cl)ccc12 (centres unmarked) [Chloroquine, 7-chloro-4-(4-diethylamino-1-methylbutylamino)quinoline]
inhibition of ethoxyresorufin O-deethylase activity [3]: inhibitors of ethoxyresorufin O-deethylase activity

Cc1nc2c([nH]1)c(=O)n(C)c(=O)n2Cc1ccco1 [Furafylline, 1H-purine-2,6-dione, 3-(2-furanylmethyl)-3,7-dihydro-1,8-dimethyl]
irreversible binding of 1-hydroxytacrine-derived radioactivity, Percent Control Value [4]: 31.7%
inhibition of irreversible binding for both tacrine and 1-hydroxytacrine [4]: most effective inhibitor
irreversible binding of tacrine-derived radioactivity, Percent Control Value [4]: 31.6%

CN/C(=N/CCSCc1nc[nH]c1C)NC#N [Cimetidine, N-cyano-N'-methyl-N"-[2[[(5-methyl-1H-imidazol-4-yl)methyl]thio]ethyl]guanidine]
inhibition of P450 enzymes including P450 1A2 (P450 1A2 [2]): inhibitor of P450 enzymes including P450 1A2

Nc1c2c(nc3ccccc13)CCCC2O (centres unmarked) [1-Hydroxytacrine, 1-hydroxytacrine]
mean AUC(O-tldc), dose proportionality ([5]; 10 and 40 mg oral, plasma): increased greater than dose proportionally
elimination rate from plasma ([5]; all volunteers): appeared to be limited by the rate of formation
excretion and 1-hydroxytacrine plasma concentrations in cigarette smokers ([5]; smokers compared to nonsmokers): decreased excretion and lower 1-hydroxytacrine plasma concentrations
higher plasma concentrations [6]: approximately 40%
irreversible binding to human microsomal protein (P450 1A2 [7]; 1-hydroxytacrine): found to bind irreversibly
1-hydroxytacrine equivalents irreversibly bound to 1 mg microsomal protein (P450 1A2 [7]; 1-hydroxytacrine 0.5 μM, enoxacin 0.0, 20 min): 0.018 ± 0.001
irreversible binding of derived radioactivity to microsomal protein (P450 1A2 [7]; Table 6, deletion of NADPH): no irreversible

CCC1(c2ccccc2)C(=O)NC(=O)NC1=O [Phenobarbital]
effect of pretreatment (induction) on 1-hydroxytacrine formation [8]: only a minimal effect on 1-hydroxytacrine formation
effect of pretreatment on binding [9]: little or no effect on binding

Nc1c2c(nc3ccc(O)cc13)CCCC2 [7-Hydroxytacrine, 7-hydroxytacrine]
levels over time [10]: levels rise then fall over time

CCn1cnc(C(=O)NC)c1C(=O)NC [Ethimizol]
irreversible binding of 1-hydroxytacrine-derived radioactivity, Percent Control Value [4]: 65.6%
inhibition of irreversible binding for both tacrine and 1-hydroxytacrine [4]: less of an effect
irreversible binding of tacrine-derived radioactivity, Percent Control Value [4]: 80.1%
